{
  "source": "paper PMC6315541",
  "about": "“Nile Tilapia Derived Antimicrobial Peptide TP4 Exerts Antineoplastic Activity Through Microtubule Disruption” (Marine Drugs, 2018)",
  "key": {"[1]": {"system": "microtubule network (α-Tubulin) in A549 cells", "test": "Immunocytochemistry of microtubule network and peptide uptake in A549 cells", "type": "cell-based, human", "conditions": "A549 cells; TP4 6.71 μM, 3 h; FITC-labeled mutants; Figure 6B", "experimental": "To examine whether TP4 may affect microtubule dynamics, A549 cells were treated with TP4, and cytoskeletal elements were analyzed by immunocytochemistry (ICC). […] We then asked whether TP4 treatment may influence tubulin protein levels by performing Western blots on lysates from A549 cells that had been treated with vehicle or TP4. […] We next conducted a microtubule regrowth assay to further address whether TP4 may disrupt microtubule polymerization. TP4 was applied to A549 cells that had been treated with or without Nocodazole (20 μM) treatment for 6 h, which completely depolymerizes the microtubule network. The repolymerization of microtubules was then initialized by the addition of fresh recovery medium, and regrowth was analyzed by ICC.\nWhile the reduced toxicity may result from impaired binding to tubulin, it is also possible that such effects may be caused by conformational changes in the TP4 mutants, see Supplementary Figure S1C,D, which prevent intracellular penetration. To test this possibility, ICC was conducted to evaluate the cellular localization and the effects on microtubules. […] For both Gly and Ala substitution mutants, FITC-labeled TP4 mutants were able to be taken up intracellularly, see Figure 6B, panels MT-1 to MT-6. However, the microtubule network was only affected in MT-1- and MT-4-treated cells and not the other mutant-treated groups, as shown in Figure 6B.\n(§1) Figure 6 Loss of cancer-killing ability in TP4 mutants. (A) Cell viability in A549 cells was determined by the adenosine triphosphate (ATP) assay following treatment with varying doses of TP4 and TP4 mutants for 24 h. Multiple wells were analyzed for each assay. Results represent the mean ± SD. Statistical comparisons between groups were performed using two-way ANOVA: a, not significant; b, p < 0.05; d, p < 0.001. Statistical analyses are shown in Supplementary Table S1. (B) Cells were stained for TP4 (WT panel), FITC (MT-1 to MT-6 panels), α-Tubulin, and F-actin. Hoechst33342 was used for nuclei staining. Boxed regions are magnified in the furthest right panels. […] Bar: 20 μm.\nCells were stained with TP4 (1:1000), FITC (1:500, ThermoFisher Scientific, clone 1F8-1E4), α-Tubulin (1:500), and appropriate Alexa Flour conjugated secondary antibody (1:500; ThermoFisher Scientific, Eugene, OR, USA). Hochest33342 was used for nuclear staining, and Alexa Fluor 647-conjugated phalloidin (1:200, Thermo Fisher Scientific, Eugene, OR, USA) was used to stain F-actin. For the confocal microscopic analysis, samples were mounted with fluorescent mounting medium (ProLong Gold Antifade Reagent, ThermoFisher Scientific, Eugene, OR, USA) and images were obtained with a FV3000 laser-scanning confocal microscope (Olympus), using a 60 × objective lens (Plapon 60 × OSC2, N.A. 1.4, oil) with the 4′,6-diamidino-2-phenylindole (DAPI) ([…]), green fluorescent protein (GFP) (EX 470, EM 525 for enhanced GFP (EGFP)), and Cy5 ([…]) emission filters. FV31S software (Olympus, Tokyo, Japan) was used for image acquisition."}, "[2]": {"system": "A549 cells", "test": "Cell viability (CellTiter-Glo ATP assay) in A549 cells", "type": "cell-based, human", "conditions": "24 h; for relative ATP levels (cell viability): CellTiter-Glo ATP assay, luminescence, mean ± SD of three independent assays, n ≥ 5 wells per dose; for cytotoxicity to A549 cells (in words): doses 3.35-20.12 µM, ATP assay, Figure 6A", "experimental": "as §1\nThe A549 cell line (Bioresource Collection and Research Center (BCRC) 60074) was purchased from the BCRC and cultured according to BCRC recommendations. For the cell viability and transfection assay, 4–5 × 10^3 cells were seeded into the wells of a 96-well plate and cultured overnight. Cells were then treated according to the indicated doses and times. Cell viability was quantified using the CellTiter-Glo® Luminescent Cell Viability Assay kit (ATP assay) (Madison, WI, USA) as previously described. The luminescent signal was measured using a photometer (SpectraMax® i3, Molecular Devices, Wals, Austria).\nFor the multi-well based assay, cells were plated at least in quadruplicate. Data were collected from independently repeated experiments (N ≥ 3) and were analyzed by Prism5 software (GraphPad Inc., La Jolla, CA, USA). Statistical significance was determined by a two-tailed Student’s t-test or one-way/two-way analysis of variance (ANOVA) with a Bonferroni post hoc test. Differences were considered statistically significant at p < 0.05. […]\nSupplementary Table S1. Cellular toxicit y of TP 4 to A549 cells was evaluated b y cell viability. Results of statis tical tests on data in Figu re 6A are shown. Multiple wells were anal yzed for each ex periment (n ≥ 5 wells per do se). Results represent the mean ± SD from three independent assays. Statistical comparisons between mock versus TP4 treatment groups were performed using two -way ANOVA anal ysis with Bonferroni post-hoc test: a, not signi ficant; b, P < 0.05; c, P < 0.01; d, P < 0.001. […]\n(A-G) Th e helical projection plot and s tructural model o f TP4 (A) and TP4 variants (MT-1 to MT-6, B-G ). The helical proj ecti on was produced b y an online helical wheel projection program (http://rzlab.ucr.edu/scripts/wheel/wheel.cgi). Amino acid residues are numbered and each amino acid is connected with lines to indicate its relative position along the helix. The hydrophobic residues are shown as diamonds ; h ydrophilic residues are circles. Residues with negative charge are shown as trian gles and positively charged residues are pentagons. Hydrophobicity is color coded. The"}},
  "note": "“Also recorded” adds a separate entry of the source.",
  "data": [
    {"substance": "MT-4: TP4 mutant, Phe1 to Ala (AIHHIIGGLFSAGKAIHRLIRRRRR)", "values": [
      {"measurement": "effect on microtubule network (α-Tubulin ICC)", "setting": "[1]", "value": "affected; also recorded: microtubule abnormalities were observed"},
      {"measurement": "relative ATP levels (cell viability)", "setting": "[2]; 3.35 µM", "value": "0.454±0.169"},
      {"measurement": "relative ATP levels (cell viability)", "setting": "[2]; 5.03 µM", "value": "0.241±0.094"},
      {"measurement": "relative ATP levels (cell viability)", "setting": "[2]; 6.71 µM", "value": "0.070±0.045"},
      {"measurement": "relative ATP levels (cell viability)", "setting": "[2]; 20.12 µM", "value": "0.001±0.007"},
      {"measurement": "cytotoxicity to A549 cells (in words)", "setting": "[2]", "value": "strongly cytotoxic"}
    ]},
    {"substance": "MT-1: TP4 mutant, Phe1 to Gly (GIHHIIGGLFSAGKAIHRLIRRRRR)", "values": [
      {"measurement": "effect on microtubule network (α-Tubulin ICC)", "setting": "[1]", "value": "affected; also recorded: microtubule abnormalities were observed"},
      {"measurement": "relative ATP levels (cell viability)", "setting": "[2]; 3.35 µM", "value": "0.931±0.160"},
      {"measurement": "relative ATP levels (cell viability)", "setting": "[2]; 5.03 µM", "value": "1.044±0.280"},
      {"measurement": "relative ATP levels (cell viability)", "setting": "[2]; 6.71 µM", "value": "0.852 ± 0.145"},
      {"measurement": "relative ATP levels (cell viability)", "setting": "[2]; 20.12 µM", "value": "0.003±0.001"},
      {"measurement": "cytotoxicity to A549 cells (in words)", "setting": "[2]", "value": "decreased cytotoxicity"}
    ]}
  ]
}
